# How the values were obtained:
# [1] = system: androgen-independent prostate cancer cells; settings: in vitro and in vivo; cited from earlier work
# [2] = system: LNCaP prostate tumor cells; test: LNCaP human prostate cancer model in testosterone-supplemented male nude mice; type: in vivo; settings: compared to control and castration
# Procedure: Male nude mice (M&B) were supplemented with testosterone pellets (Innovative Research of America). LNCaP prostate cancer cells (obtainable from ATCC), obtained from cell culture and suspended in matrigel, were implanted s.c. in the inguinal region of the mice. Treatment was started when the tumors were approximately 25 mm^2 in size. Treatment was continued until progression of the tumors, Experimental groups were: 1) control (vehicle), 2) castration, 3) the antiandrogen casodex, 30 mg/kg s.c., 4) the antiprogestin mifepristone (RU-486), 10 mg/kg sec., and 5) 11β-(4-acetylphenyl)-17β-hydroxy-17α-(1,1,2,2,2-pentafluoroethyl)-estra-4,9-dien-3-one (antiprogestin (I)), 10 mg/kg sc., 5 times weekly. The tumor area was determined by caliper measurements. The Kruskal Wallis test was used for statistical analysis of intergroup differences of mean values. The tumor weight was determined at the end of the experiment.
# R3327H = settings: administered alone; R3327H prostate cancer model; cited from earlier work
Compound,effect on apoptosis [1],"tumor growth inhibition (tumor area by caliper) ([2]; 10 mg/kg s.c., 5 times weekly)",inhibition of tumor growth (R3327H),tumor growth inhibition (tumor area by caliper) ([2]; 30 mg/kg s.c.)
CC/C(=C(\c1ccccc1)c1ccc(OCCN(C)C)cc1)c1ccccc1 [tamoxifen],effective inhibitors of apoptosis,,,
CC#C[C@]1(O)CC[C@H]2[C@@H]3CCC4=CC(=O)CCC4=C3[C@@H](c3ccc(N(C)C)cc3)C[C@@]21C [mifepristone],effective inhibitors of apoptosis,totally ineffective,substantial inhibition of tumor growth,
CC(O)(CS(=O)(=O)c1ccc(F)cc1)C(=O)Nc1ccc(C#N)c(C(F)(F)F)c1 (centres unmarked) [casodex],,,,totally ineffective
